Data from the supplement of paper PMC11208160.

Test: recombinant barcode read abundance after kanamycin selection (control-corrected) (log10(CPM+1)); higher = more efficient recombination; sequences stand for … in AGTGCAGAGAAAATCGGCCAGTTTTCTCTGCCTGCAGTCCGCATGCCGT…AGATTTATGCAGCGGACTGCCTTTCTCCCAAAGTGATAAACCGGACAGTATCATGGACCGGTTTTCCCGGTAATCCGTATTTGCAAGGTTGGTTTCACT; site = the 11-nt target
Procedure, shortened: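 In a pooled screen in E. coli, targets were paired with target-binding loops of the IS621 bridge RNA. Each oligo carried a promoter, a target, a barcode and the first 104 bridge RNA bases driven by J23119, and was Gibson-cloned into a vector holding the remaining 73 bp and a T7-inducible recombinase before co-electroporation with a donor plasmid. Duplicate platings went onto chloramphenicol/ampicillin LB agar as the control or onto chloramphenicol/ampicillin/kanamycin with 0.1 mM IPTG. Recombination efficiency is the averaged, control-corrected count per million of barcodes at recombinant junctions, given as log10(CPM+1).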
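Note: IS621 recombinase and bridge RNA in Escherichia coli cells.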

Sequence | recombinant barcode read abundance (log10)
CTATGGACTTGGGTTCTAACCTGTTGCAT (site CTATGGACTAT) | 0.348
CTATGGACTTGGGTTCTAACCTGTTGCAT (site CTATGGACTCT) | 0.614
CTATGGACTTGGGTTCTAACCTGTTGCAT (site CTATGGACTGT) | 0.217
CTATGGACTTGGGTTCTAACCTGTTGCAT (site CTATGGACTTT) | 0.0336
CTATGTCCTTGGGTTCTAACCTGTTGCGT (site CTATGTCCTAC) | 1.44
CTATGTCCTTGGGTTCTAACCTGTTGCGT (site GGATGTCCTAC) | 0.228
CTATGTGCTTGGGTTCTAACCTGTTGCAT (site CTATGTGCTAA) | 0.295
CTATGTGCTTGGGTTCTAACCTGTTGCAT (site CTATGTGCTAC) | 0.168
CTATGTGCTTGGGTTCTAACCTGTTGCAT (site CTATGTGCTAG) | 0.0201
CTATGTGCTTGGGTTCTAACCTGTTGCAT (site CTATGTGCTAT) | 0.109
CTATTCACTTGGGTTCTAACCTGTTGCCT (site CTATTCACTAG) | 1.34
CTATTCACTTGGGTTCTAACCTGTTGCCT (site CTATTCCCTAG) | 0.0733
CTATTCACTTGGGTTCTAACCTGTTGCCT (site CTATTCGCTAG) | 0.0529
CTATTCACTTGGGTTCTAACCTGTTGCCT (site CTATTCTCTAG) | 0.091
CTATTCTCTTGGGTTCTAACCTGTTGCTA (site CTATACTCTTG) | 0.115
CTATTCTCTTGGGTTCTAACCTGTTGCTA (site CTATTCTCTTA) | 1.62
CTATTGTCTTGGGTTCTAACCTGTTGCGT (site CTATTGTCTAC) | 2.78
CTATTGTCTTGGGTTCTAACCTGTTGCGT (site CTATTGTCTCC) | 0.019
CTATTGTCTTGGGTTCTAACCTGTTGCGT (site CTATTGTCTGC) | 0.475
CTATTGTCTTGGGTTCTAACCTGTTGCGT (site CTATTGTCTTC) | 0.0685
CTATTTACTTGGGTTCTAACCTGTTGCGG (site CTATTTACTCC) | 0.781
CTATTTACTTGGGTTCTAACCTGTTGCGG (site TGTCGGCCTAA) | 0.0533

Sequence | recombinant barcode read abundance (log10)
CTATTTCCTTGGGTTCTAACCTGTTGCCT (site CGGTTTCCTAG) | 0.032
CTATTTCCTTGGGTTCTAACCTGTTGCCT (site CTATTTCCTAG) | 0.284
CTCAAACCTTGGGTTCTAACCTGTTGCTT (site CTCAAACCTAA) | 0.355
CTCAAACCTTGGGTTCTAACCTGTTGCTT (site CTCACACCTAA) | 0.15
CTCAAGACTTGGGTTCTAACCTGTTGCGG (site CTCAAGACTCC) | 2.5
CTCAAGACTTGGGTTCTAACCTGTTGCGG (site CTCTAGACTCA) | 0.219
CTCACACCTTGGGTTCTAACCTGTTGCAG (site CTCACACCTCT) | 0.968
CTCACACCTTGGGTTCTAACCTGTTGCAG (site TGTCATGCTAC) | 0.331
CTCACGCCTTGGGTTCTAACCTGTTGCTT (site CACACGCCTAG) | 0.228
CTCACGCCTTGGGTTCTAACCTGTTGCTT (site CTCACGCCTAA) | 0.237
CTCAGGTCTTGGGTTCTAACCTGTTGCCA (site CTCAGGTCTAG) | 0.18
CTCAGGTCTTGGGTTCTAACCTGTTGCCA (site CTCAGGTCTTG) | 0.193
CTCATTCCTTGGGTTCTAACCTGTTGCAT (site CTCATTCCTAA) | 0.0718
CTCATTCCTTGGGTTCTAACCTGTTGCAT (site CTCATTCCTAC) | 0.0351
CTCATTCCTTGGGTTCTAACCTGTTGCAT (site CTCATTCCTAG) | 0.112
CTCATTCCTTGGGTTCTAACCTGTTGCAT (site CTCATTCCTAT) | 0.523
CTCATTCCTTGGGTTCTAACCTGTTGCTT (site CTCATTCCTAA) | 0.211
CTCATTCCTTGGGTTCTAACCTGTTGCTT (site CTCATTCCTAC) | 0.482
CTCATTCCTTGGGTTCTAACCTGTTGCTT (site CTCATTCCTAG) | 0.0511
CTCATTCCTTGGGTTCTAACCTGTTGCTT (site CTCATTCCTAT) | 0.0615
CTCCATCCTTGGGTTCTAACCTGTTGCCT (site CTCCATACTAG) | 0
CTCCATCCTTGGGTTCTAACCTGTTGCCT (site CTCCATCCTAG) | 0.898

Sequence | recombinant barcode read abundance (log10)
CTCCATCCTTGGGTTCTAACCTGTTGCCT (site CTCCATGCTAG) | 0.0326
CTCCATCCTTGGGTTCTAACCTGTTGCCT (site CTCCATTCTAG) | 0.0176
CTCCATGCTTGGGTTCTAACCTGTTGCCT (site CTCCATACTAG) | 0.325
CTCCATGCTTGGGTTCTAACCTGTTGCCT (site CTCCATCCTAG) | 0.312
CTCCATGCTTGGGTTCTAACCTGTTGCCT (site CTCCATGCTAG) | 1.19
CTCCATGCTTGGGTTCTAACCTGTTGCCT (site CTCCATTCTAG) | 0.0894
CTCCATTCTTGGGTTCTAACCTGTTGCCT (site CTCCATACTAG) | 0.0751
CTCCATTCTTGGGTTCTAACCTGTTGCCT (site CTCCATCCTAG) | 0.314
CTCCATTCTTGGGTTCTAACCTGTTGCCT (site CTCCATGCTAG) | 0.129
CTCCATTCTTGGGTTCTAACCTGTTGCCT (site CTCCATTCTAG) | 0.739
CTCCCGACTTGGGTTCTAACCTGTTGCGC (site AGAGTAGCTTA) | 0.119
CTCCCGACTTGGGTTCTAACCTGTTGCGC (site CTCCCGACTGC) | 2.08
CTCCCTGCTTGGGTTCTAACCTGTTGCCT (site CTCCCTGCTAG) | 1.1
CTCCCTGCTTGGGTTCTAACCTGTTGCCT (site GAGGTCCCTCC) | 0.0158
CTCCGCCCTTGGGTTCTAACCTGTTGCTT (site CTCCGACCTAA) | 0.121
CTCCGCCCTTGGGTTCTAACCTGTTGCTT (site CTCCGCCCTAA) | 0.578
CTCCGCCCTTGGGTTCTAACCTGTTGCTT (site CTCCGGCCTAA) | 0.106
CTCCGCCCTTGGGTTCTAACCTGTTGCTT (site CTCCGTCCTAA) | 0.0629
CTCCGCTCTTGGGTTCTAACCTGTTGCCT (site ATCCGCTCTAG) | 0.211
CTCCGCTCTTGGGTTCTAACCTGTTGCCT (site CTCCGCTCTAG) | 2.28
CTCCGCTCTTGGGTTCTAACCTGTTGCCT (site GTCCGCTCTAG) | 0.0686
CTCCGCTCTTGGGTTCTAACCTGTTGCCT (site TTCCGCTCTAG) | 0.113

Sequence | recombinant barcode read abundance (log10)
CTCCGTCCTTGGGTTCTAACCTGTTGCGT (site CTCCGCCCTAG) | 0.23
CTCCGTCCTTGGGTTCTAACCTGTTGCGT (site CTCCGTCCTAC) | 2.54
CTCGAATCTTGGGTTCTAACCTGTTGCTT (site CTCGAATCTAA) | 0.897
CTCGAATCTTGGGTTCTAACCTGTTGCTT (site GGGATCCCTCC) | 0.101
CTCGACCCTTGGGTTCTAACCTGTTGCAT (site CTCGACCCTAT) | 2.4
CTCGACCCTTGGGTTCTAACCTGTTGCAT (site GGGCCTGCTTG) | 1.66
CTCGATTCTTGGGTTCTAACCTGTTGCAT (site CTCAATTCTAT) | 0.355
CTCGATTCTTGGGTTCTAACCTGTTGCAT (site CTCCATTCTAT) | 0.194
CTCGATTCTTGGGTTCTAACCTGTTGCAT (site CTCGATTCTAT) | 1.66
CTCGATTCTTGGGTTCTAACCTGTTGCAT (site CTCTATTCTAT) | 0.213
CTCGGTTCTTGGGTTCTAACCTGTTGCCT (site CTCGGTACTTG) | 0.128
CTCGGTTCTTGGGTTCTAACCTGTTGCCT (site CTCGGTTCTAG) | 1.41
CTCGTAACTTGGGTTCTAACCTGTTGCCT (site CTCGTAACTAG) | 0.361
CTCGTAACTTGGGTTCTAACCTGTTGCCT (site CTCGTCACTAG) | 0.0602
CTCGTAACTTGGGTTCTAACCTGTTGCCT (site CTCGTGACTAG) | 0.123
CTCGTAACTTGGGTTCTAACCTGTTGCCT (site CTCGTTACTAG) | 1.13
CTCTACACTTGGGTTCTAACCTGTTGCTG (site CTCGACACTCA) | 0.116
CTCTACACTTGGGTTCTAACCTGTTGCTG (site CTCTACACTCA) | 1.13
CTCTACTCTTGGGTTCTAACCTGTTGCCT (site CTCTACTCTAG) | 2.02
CTCTACTCTTGGGTTCTAACCTGTTGCCT (site TTCTACTCTAG) | 0.0366
